Measured values: ChEMBL document CHEMBL1146314, “Methotrexate gamma-hydroxamate derivatives as potential dual target antitumor drugs” (Bioorg Med Chem, 2007)
pIC50: −log10 of the molar value.

What was measured:
[1] = molecular target: T1, Matrix metalloproteinase-14 (Homo sapiens, UniProt P50281); assay: Inhibition of human recombinant MMP14
Dihydrofolate reductase [2] = molecular target: T2, Dihydrofolate reductase (Homo sapiens, UniProt P00374)
T2 sequence (P00374 whole entry): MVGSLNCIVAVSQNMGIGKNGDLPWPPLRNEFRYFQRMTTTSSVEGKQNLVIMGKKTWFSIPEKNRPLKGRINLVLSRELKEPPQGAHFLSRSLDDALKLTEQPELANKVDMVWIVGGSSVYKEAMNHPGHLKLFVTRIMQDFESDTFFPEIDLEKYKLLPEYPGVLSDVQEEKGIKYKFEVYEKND
Description: Inhibition of DHFR using folic acid substrate

Dihydrofolate reductase [3] = molecular target: T2, Dihydrofolate reductase; remark: listed apart in the source
Description: Inhibition of DHFR using dihydrofolic acid substrate

[4] = molecular target: T1, Matrix metalloproteinase-14; assay: Ratio of IC50 of drug to CGS 27023A for human recombinant MMP14
[5] = molecular target: T3, 72 kDa type IV collagenase (Homo sapiens, UniProt P08253); assay: Ratio of IC50 of drug to CGS 27023A for human recombinant MMP2
Target sequence in this assay (P08253 110-660 limits assumed): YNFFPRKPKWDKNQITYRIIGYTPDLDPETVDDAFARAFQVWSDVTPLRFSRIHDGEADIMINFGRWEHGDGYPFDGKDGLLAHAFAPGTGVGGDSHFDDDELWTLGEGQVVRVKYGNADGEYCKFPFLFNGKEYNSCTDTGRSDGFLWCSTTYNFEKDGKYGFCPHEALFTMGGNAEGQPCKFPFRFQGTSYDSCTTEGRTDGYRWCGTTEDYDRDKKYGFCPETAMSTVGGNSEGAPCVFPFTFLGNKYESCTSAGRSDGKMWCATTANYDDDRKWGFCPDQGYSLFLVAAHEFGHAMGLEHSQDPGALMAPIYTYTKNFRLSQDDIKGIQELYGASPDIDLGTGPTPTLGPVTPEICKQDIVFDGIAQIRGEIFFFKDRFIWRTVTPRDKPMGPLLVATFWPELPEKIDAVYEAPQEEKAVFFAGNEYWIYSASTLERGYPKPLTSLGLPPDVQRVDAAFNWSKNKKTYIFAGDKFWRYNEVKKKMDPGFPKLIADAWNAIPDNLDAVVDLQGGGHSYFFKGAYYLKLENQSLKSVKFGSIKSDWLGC

[6] = Antiproliferative activity against Tsu-Pr1 cells after 72 hrs by MTT assay; assay type: functional, cell-based; settings: Homo sapiens, TSU-Pr1, 72 h
[7] = molecular target: T4, Matrix metalloproteinase-9 (Homo sapiens, UniProt P14780); assay: Inhibition of human recombinant MMP9
Matrilysin = molecular target: T5, Matrilysin (Homo sapiens, UniProt P09237); assay: Inhibition of human recombinant MMP7
T5 sequence (P09237 whole entry): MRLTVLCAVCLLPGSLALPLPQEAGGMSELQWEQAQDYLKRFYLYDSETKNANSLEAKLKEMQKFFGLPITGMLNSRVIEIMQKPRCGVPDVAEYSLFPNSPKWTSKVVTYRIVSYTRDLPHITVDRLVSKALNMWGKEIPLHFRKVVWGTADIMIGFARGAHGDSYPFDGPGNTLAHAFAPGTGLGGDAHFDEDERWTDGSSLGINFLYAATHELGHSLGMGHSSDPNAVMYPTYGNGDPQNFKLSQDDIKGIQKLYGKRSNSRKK

A549 [8] = assay: Antiproliferative activity against A549 cells after 72 hrs by MTT assay; assay type: functional, cell-based; settings: Homo sapiens, A549, 72 h
A549 [9] = assay: Antiproliferative activity against A549 cells after 72 hrs in folate depleted media; assay type: functional, cell-based; settings: Homo sapiens, A549, 72 h
[10] = molecular target: T3, 72 kDa type IV collagenase; assay: Inhibition of human recombinant MMP2
Target sequence in this assay (P08253 whole entry): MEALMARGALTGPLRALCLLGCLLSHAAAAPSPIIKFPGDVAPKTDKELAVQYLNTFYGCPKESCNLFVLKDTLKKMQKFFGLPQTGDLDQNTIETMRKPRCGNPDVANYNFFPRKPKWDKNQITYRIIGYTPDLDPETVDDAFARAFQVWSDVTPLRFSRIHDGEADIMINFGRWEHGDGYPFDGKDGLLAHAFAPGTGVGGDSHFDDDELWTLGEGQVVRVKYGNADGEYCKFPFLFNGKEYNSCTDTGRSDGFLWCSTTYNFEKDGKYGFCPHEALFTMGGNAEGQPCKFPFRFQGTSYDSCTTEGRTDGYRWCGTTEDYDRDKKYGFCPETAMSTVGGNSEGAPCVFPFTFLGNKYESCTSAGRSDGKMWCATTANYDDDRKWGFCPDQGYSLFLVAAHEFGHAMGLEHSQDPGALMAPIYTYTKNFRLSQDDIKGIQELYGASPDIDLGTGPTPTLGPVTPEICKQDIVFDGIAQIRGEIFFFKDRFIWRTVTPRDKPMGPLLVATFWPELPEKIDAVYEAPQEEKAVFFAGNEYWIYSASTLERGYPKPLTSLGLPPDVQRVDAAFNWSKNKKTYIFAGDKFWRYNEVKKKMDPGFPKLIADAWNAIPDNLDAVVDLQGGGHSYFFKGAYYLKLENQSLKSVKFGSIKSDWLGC

[11] = molecular target: T6, Matrilysin (Homo sapiens) (UniProt P09237); assay: Ratio of IC50 of drug to CGS 27023A for human recombinant MMP7
T6 sequence (whole entry): T5 sequence (P09237 whole entry)

PPC-1 [12] = assay: Antiproliferative activity against PPC1 cells after 72 hrs in folate depleted media; assay type: functional, cell-based; settings: Homo sapiens, PPC-1, 72 h
PPC-1 [13] = assay: Antiproliferative activity against PPC1 cells after 72 hrs by MTT assay; assay type: functional, cell-based; settings: Homo sapiens, PPC-1, 72 h
[14] = molecular target: T4, Matrix metalloproteinase-9; assay: Ratio of IC50 of drug to CGS 27023A for human recombinant MMP9
[15] = Antiproliferative activity against Tsu-Pr1 cells after 72 hrs in folate depleted media; assay type: functional, cell-based; settings: Homo sapiens, TSU-Pr1, 72 h
[16] = molecular target: T4, Matrix metalloproteinase-9; assay: Inhibition of human recombinant MMP9 at 100 uM
[17] = molecular target: T1, Matrix metalloproteinase-14; assay: Inhibition of human recombinant MMP14 at 100 uM
[18] = molecular target: T3, 72 kDa type IV collagenase; assay: Inhibition of human recombinant MMP2 at 100 uM
Target sequence in this assay (P08253 110-660 limits assumed): as the sequence (P08253 110-660 limits assumed) above

[19] = molecular target: T6, Matrilysin (Homo sapiens); assay: Inhibition of human recombinant MMP7 at 100 uM

T4 sequence (P14780 whole entry): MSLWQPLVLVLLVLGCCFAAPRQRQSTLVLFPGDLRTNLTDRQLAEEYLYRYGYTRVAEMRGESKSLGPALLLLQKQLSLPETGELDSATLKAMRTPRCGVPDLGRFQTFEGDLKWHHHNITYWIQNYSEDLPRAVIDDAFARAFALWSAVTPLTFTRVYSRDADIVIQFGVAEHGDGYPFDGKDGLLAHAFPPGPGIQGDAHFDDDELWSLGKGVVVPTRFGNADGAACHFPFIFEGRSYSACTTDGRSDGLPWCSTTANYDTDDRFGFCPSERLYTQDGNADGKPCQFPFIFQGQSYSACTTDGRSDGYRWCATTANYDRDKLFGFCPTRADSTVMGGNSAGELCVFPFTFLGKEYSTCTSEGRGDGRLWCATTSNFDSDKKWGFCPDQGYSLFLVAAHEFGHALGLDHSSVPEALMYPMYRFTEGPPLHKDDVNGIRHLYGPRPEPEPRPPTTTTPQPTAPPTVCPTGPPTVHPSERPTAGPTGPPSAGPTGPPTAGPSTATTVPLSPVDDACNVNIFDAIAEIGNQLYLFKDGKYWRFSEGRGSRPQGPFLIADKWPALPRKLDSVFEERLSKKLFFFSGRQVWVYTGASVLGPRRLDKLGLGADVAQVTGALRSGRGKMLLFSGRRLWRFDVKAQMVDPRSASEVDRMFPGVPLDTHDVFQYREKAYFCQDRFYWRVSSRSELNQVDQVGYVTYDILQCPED

Compound	pIC50 [1]	pIC50 (Dihydrofolate reductase [2])	pIC50 (Dihydrofolate reductase [3])	Ratio IC50 [4]	Ratio IC50 [5]	pIC50 [6]	pIC50 [7]	pIC50 (Matrilysin)	pIC50 (A549 [8])	pIC50 (A549 [9])	pIC50 [10]	Ratio IC50 [11]	pIC50 (PPC-1 [12])	pIC50 (PPC-1 [13])	Ratio IC50 [14]	pIC50 [15]	inhibition [16]	inhibition [17]	inhibition [18]	inhibition [19]
COc1ccc(S(=O)(=O)N(Cc2cccnc2)[C@@H](C(=O)NO)C(C)C)cc1 [CGS-27023A]	7.64																			
CN(Cc1cnc2nc(N)nc(N)c2n1)c1ccc(C(=O)N[C@@H](CCC(=O)N[C@@H](Cc2ccccc2)C(=O)NO)C(=O)O)cc1	4.15	6.60	6.77	3040	2500	5.70	4.82	4.36	5.19	6.30	4.22	440	6.30	5.32	3000	6.92				
CN(Cc1cnc2nc(N)nc(N)c2n1)c1ccc(C(=O)N[C@@H](CCC(=O)NO)C(=O)O)cc1		6.77	7.15			5.70		4.00	5.22	7.00			7.30	5.70		8.00	61%	48%	67%	
CN(Cc1cnc2nc(N)nc(N)c2n1)c1ccc(C(=O)N[C@@H](CCC(=O)N2CCC[C@H]2C(=O)NO)C(=O)O)cc1		6.89	6.92			5.64			5.12	6.30			6.70	5.74		7.00	61%	47%	56%	43%
Nc1nc2ncc(CNc3ccc(C(=O)N[C@@H](CCC(=O)NO)C(=O)O)cc3)nc2c(=O)[nH]1						3.92			4.00					4.10			55%	42%	66%	53%
Nc1nc2ncc(CNc3ccc(C(=O)N[C@@H](CCC(=O)N[C@@H](Cc4ccccc4)C(=O)NO)C(=O)O)cc3)nc2c(=O)[nH]1	4.10			3480	2710	3.82	4.66	4.82	3.96		4.19	150		4.15	4400					
NC1=NC(=O)C2N=C(CNc3ccc(C(=O)N[C@@H](CCC(=O)N4CCC[C@H]4C(=O)NO)C(=O)O)cc3)C=NC2=N1 (stereo not given in full)						4.10			3.89					3.92					58%	54%
CN(Cc1cnc2nc(N)nc(N)c2n1)c1ccc(C(=O)N[C@@H](CCC(=O)O)C(=O)O)cc1 [METHOTREXATE]						7.00			7.00	7.70			8.00	7.00		8.10				
